Measured values as given in ChEMBL document CHEMBL3507680, “University of Dundee, Gates Library screen for HepG2 cell viability”.

Assay: Human HepG2 cell viability assay in 384 well format
Assay type: toxicity, cell-based
Parameters: dose 125 nL, time 70.5 hour; concentration not given beside the values
Details: HepG2 cells, read-out: Inhibition

Structure (SMILES)	cytotoxicity at 70.5 h [%]
CC(C)NC(=O)N1CCC2(CC1)CCn1c(C3CC3)cnc12	51.2
CC(C)Nc1nc2c(c(NC3CC3)n1)CN(C(=O)Cc1ccsc1)CC2	3.26
Cc1cnc(N2CCC3(CC2)C(c2ccccc2)CC(=O)N3C)nc1 (configuration not stated)	-10.2
CN(C)C(=O)N1CC2(CCOCC2)c2cc(NS(=O)(=O)C3CC3)ccc21	11.5
O=C(Nc1cnccn1)[C@H]1COC[C@H]2CN(c3ncc(F)cn3)C[C@H]21	-5.25
CNC(=O)N1CCC2(CC1)CN(C)c1ccc(F)cc12	2.16
CC(C)Nc1nc2c(c(NC3CC3)n1)CN(C(=O)c1ccsc1)CC2	-17.2
c1cnc(N2CC3(CCN(C4CCOC4)CC3)c3ccccc32)nc1 (configuration not stated)	-6.16
COc1cccc(CNC(=O)c2nc3c(o2)CN(C(=O)N(C)C)C3)c1	-8.42
Cc1ccc(CN2C[C@H]3C[C@H](C(=O)NCc4cccnc4)[C@@H](C2)O3)cc1	37.6
O=C(C1CC1)N1CCC2(CC1)CNCCO2	4.17
CC(C)N(C)C(=O)C1=NOC2(CCN(C(=O)c3cccn3C)C2)C1 (configuration not stated)	24.9
CC(C)N(C)C(=O)C1=NOC2(CCN(C(=O)c3ccnnc3)C2)C1 (configuration not stated)	-1.5
CCOCC(=O)N1Cc2nccn2CC(CN(C)C)C1 (configuration not stated)	1.2
Cc1noc([C@@H]2C[C@H]3OCC[C@H]3N(S(=O)(=O)N(C)C)C2)n1	-0.423
Cc1ccc(N2CCOCC3(CCCN(c4ncc(F)cn4)C3)C2)nn1 (configuration not stated)	-3.89
Cc1cnc(N2CCCC3(COCCN(c4ccc(C)nn4)C3)C2)nc1 (configuration not stated)	-2.56
CN(C)c1nccc(N2CCO[C@H]3CN(Cc4ccco4)C[C@H]32)n1	3.82
O=c1cc(CN2CCCC2)nc2n1CCCN(Cc1ccoc1)C2	1.82
Cc1noc([C@@H]2C[C@H]3OCC[C@H]3N(S(=O)(=O)c3ccccc3)C2)n1	-1.71
CN1C(=O)CC[C@@H]2[C@H]1CCN2S(=O)(=O)Cc1ccccc1	47.7
CS(=O)(=O)N1CC[C@@H]2O[C@@H](COCC(=O)N3CCCC3)CC[C@@H]21	22.1

Structure (SMILES)	cytotoxicity at 70.5 h [%]
COc1cc(N2C[C@H](C(=O)NC3CC3)[C@@H]3CCO[C@@H]3C2)ncn1	-7.61
Cn1cc(CN2CCC3(CCCN(C(=O)c4cscn4)C3)C2)cn1 (configuration not stated)	-3.85
COCCN1C(=O)C[C@H]2[C@H]1CCN2C(=O)c1ccc[nH]1	-10.2
Cc1nc(CO[C@@H]2CN(Cc3ccco3)[C@@H]3COC[C@@H]32)cs1	-14.3
Cn1ncc2c1C(COCC1CC1)CN(Cc1ccncc1)C2 (configuration not stated)	-8.73
N#Cc1ccc(OC[C@]23COC[C@H]2CN(Cc2ccoc2)C3)nc1	0.658
Cn1cc(N2CCC3(CCN(C(=O)[C@H]4CCCO4)C3)C2=O)cn1 (some centres not stated)	-7.22
COC[C@@]12CCO[C@@H]1CCN(C(=O)COc1ccc(C)cc1)C2	-2.71
Cc1occc1C(=O)N1C[C@@H]2CCCO[C@@H]2[C@H](N(C)Cc2ccco2)C1	-0.88
O=C(c1cocn1)N1CCC[C@]2(C[C@@H](Oc3ncccc3F)CO2)C1	-5.09
Cc1c(S(=O)(=O)NCC(C)C)cnn1C	-14.3
Cc1c(Cn2cc(Cl)c(N)n2)cnn1C	-13.5
CCn1ncc(Cn2cc(Cl)c(N)n2)c1C	19.5
CC(C(=O)O)n1nc(C(F)(F)F)c(Br)c1C1CC1 (configuration not stated)	-14
O=C(O)C1CCCN1c1nc(C2CC2)cc(C(F)(F)F)n1 (configuration not stated)	2.63
O=C(O)C1CCCN1c1nc(-c2ccc(Cl)cc2)cc(C(F)(F)F)n1 (configuration not stated)	-3.11
COC(=O)c1ccc(OC)c(Cn2cc(N)cn2)c1	-19.2
CCn1cc(-c2cc(C(F)(F)F)nn2CCC#N)cn1	-9.49
Cn1cc(-c2cc(C(F)(F)F)nn2CCC#N)cn1	11.5
CCCn1nc(C)c2c(C(F)F)cc(=O)n(CC(=O)O)c21	-8.97
Cc1nn(CC(=O)O)c2nccc(-c3ccc(F)cc3)c12	-8.88
O=C(O)Cn1nc(C2CC2)c2c(-c3ccco3)ccnc21	30.2

Structure (SMILES)	cytotoxicity at 70.5 h [%]
Cc1nn(-c2ccccc2)c2c1c(C(F)F)cc(=O)n2CC(=O)O	-9.31
O=C(O)c1cc(C2CC2)nc2c(Cl)cnn12	-7.04
COC(=O)c1sc(C(F)(F)F)cc1OC	-12.4
COC(=O)c1c(Cl)c(C)nc2onc(C)c12	-9.83
CCN(Cc1nonc1C)C(=O)c1cnccn1	-8.37
Cn1nnc(NCc2ccc(-c3ccc(Cl)cc3)o2)n1	-4.59
CCCn1nnc(NCc2ccc(-c3ccc(Br)cc3)o2)n1	-11.9
CCn1nnc(NCc2cc(Cl)cc(Cl)c2OC)n1	18.4
CCn1nnc(NCc2cc(Br)cc(Br)c2OC)n1	-18.9
CC(=O)Nc1ncc(S(=O)(=O)Nc2ccccc2F)s1	-9.78
CC(=O)Nc1ncc(S(=O)(=O)Nc2ccc(C)cc2)s1	-1.08
COC(=O)c1ccc(NS(=O)(=O)c2cnc(NC(C)=O)s2)cc1	-12
Cc1cc(NCCCOC(C)C)c2nncn2n1	7.73
Cc1nn(C)c(C)c1CN1CCNCC1	-4.45
Cc1ccc(NC(=O)Nc2c(O)oc3ccccc3c2=O)cc1	4.11
CNC(=O)N1Cc2cc(F)ccc2C2(CCN(C)CC2)C1	-1.35
CNC(=O)N1CCC2(CC1)CN(C)Cc1cc(F)ccc12	2.33
Cc1nc(COCc2nc3c(o2)CN(C(=O)c2ccc[nH]2)C3)cs1	-3.29
c1ccc(OCc2nnn3c2CN(c2ncccn2)CCC3)nc1	6.14
CCN(CC)c1ccc2ccc(C(=O)N(CCOC)CCOC)cn12	-0.14
CN(C)CC1CN(C(=O)Cc2ccccc2)Cc2nccn2C1 (configuration not stated)	24
O=C(C[C@@H]1COC[C@H]2CN(C(=O)c3cccnc3)C[C@@H]12)N1CCOCC1	-4.26

Structure (SMILES)	cytotoxicity at 70.5 h [%]
O=C1COC2(CCN(Cc3cccs3)CC2)CN1c1cncnc1	0.999
Cc1ccc(N2CCCC3(COCCN(c4ccccn4)C3)C2)nn1 (configuration not stated)	-8.01
COCC(=O)N1CCCn2c(CN3CCOCC3)nnc2C1	2.56
N#Cc1cccc(CN2Cc3nccn3CC(COCC3CC3)C2)c1 (configuration not stated)	8.65
CC(C)N(C)Cc1cn2c(n1)CN(C(=O)Cc1ccccc1)CC2	-2.24
c1ccc(N2CCC3(CCCN(c4ncccn4)C3)C2)nc1 (configuration not stated)	2.93
Cc1ccc(C(=O)N2CCC3(CCN3c3ncccn3)C2)cn1 (configuration not stated)	-1.31
O=C(C[C@@H]1COC[C@H]2CN(C(=O)c3cccnc3)C[C@@H]12)N1CCCC1	1.64
CC1N(C)C(=O)COC12CCN(Cc1nccs1)CC2 (configuration not stated)	-9.04
Cn1cccc1C(=O)N1C[C@@H]2C[C@@H](c3nc(C4CC4)cs3)O[C@@H]2C1	4.85
O=C(c1cscn1)N1CCC2(CN(Cc3ccsc3)C2)C1	31.3
Cn1cc(CN2C[C@H]3CCN(C(=O)c4cscn4)C[C@H]3C2)cn1	27.4
Cc1nnc([C@H]2C[C@@H]3CCN(Cc4ccc(C)o4)C[C@H]3O2)[nH]1	-7.28
Cc1ccc(CN2CCc3c(COC(C)C)nn(C)c3C2)s1	-9.08
Cn1cc(CN2CCC3(CC2)CCN(C(=O)c2cscn2)CC3)cn1	-1.71
COCc1nn(C(C)C)c2c1CCN(Cc1ccc(C)o1)C2	-4.09
O=C(COCC1CC[C@H]2[C@H](CCN2c2ncccn2)O1)N1CCCC1 (some centres not stated)	-6
COCCNC(=O)[C@H]1CN(Cc2sccc2C)C[C@H]2OCC[C@@H]12	7.63
COCCNC(=O)[C@@H]1CN(Cc2sccc2C)C[C@H]2OCC[C@H]21	-2.35
Cc1ccc(CN2Cc3c(C(=O)N4CCOCC4)nn(C)c3C2)s1	-2.1
O=C(c1ccccc1)N1CCC[C@]2(C[C@@H](Oc3ncccc3F)CO2)C1	23.2
O=C(c1cccs1)N1C[C@@H]2OCCN(CC3CCCO3)[C@@H]2C1 (some centres not stated)	1.09

Structure (SMILES)	cytotoxicity at 70.5 h [%]
Cc1nnc(N2CCCC3(CN(Cc4ccc(F)cc4)CCO3)C2)o1 (configuration not stated)	-1.36
O=C(c1cnoc1)N1CCC[C@]2(C[C@@H](Oc3ccccn3)CO2)C1	-6.93
CN(Cc1ccco1)[C@@H]1CN(C(=O)C2CCOCC2)C[C@@H]2CCCO[C@@H]21	0.92
c1cc(-c2ccc3nc(C4CCN(CC5CC5)CC4)nn3c2)cs1	-8.2
O=C(C1CCOCC1)N1CCO[C@H]2[C@H](Oc3cccnc3)CC[C@@H]21	-3.29
O=C(Cc1cccs1)N1C[C@H]2CN(CC3CCCO3)CC[C@H]2C1 (some centres not stated)	-6.25
O=C(C[C@@H]1COC[C@H]2CN(Cc3cccnc3)C[C@@H]12)N1CCCC1	-4.76
O=C1COC2(CCN(Cc3ccncc3)CC2)CN1c1ccccc1	2.43
Cn1ncc2c1CN(Cc1ccc(F)cc1)CC2COCC1CC1 (configuration not stated)	31.5
Cn1ncc2c1CN(Cc1ccccc1F)CC2COCC1CC1 (configuration not stated)	23.7
COCCN1C[C@H](OCc2csc(C)n2)[C@H]2COC[C@H]21	-9.78
CN(C)C(=O)c1nn(C)c2c1CN(Cc1cccs1)C2	-9.29
COCCNC(=O)[C@H]1CN(Cc2csc(C)n2)C[C@H]2OCC[C@@H]12	-3.29
Cn1cc(CN2CCCC23CCN(Cc2nccn2C)CC3)cn1	3.37
CN1CC(=O)N(c2ccsc2)CC12CCN(Cc1cnn(C)c1)C2 (configuration not stated)	-0.306
COCCN1C[C@@H]2[C@@H](OC)CCN(Cc3ccsc3)[C@@H]2C1	-2.68
CN(C)CCN1CCOCC2(CCN(Cc3ccc[nH]3)CC2)C1	0.665
CN1CC(=O)N(c2cnn(C)c2)CC12CCN(Cc1cccnc1)C2 (configuration not stated)	0.303
CO[C@@H]1CCN(Cc2cccc(C)n2)[C@@H]2CN(Cc3ccncc3)C[C@@H]21	-1.88
